{
  "source": "paper PMC10340532",
  "about": "“MCAK Inhibitors Induce Aneuploidy in Triple-Negative Breast Cancer Models” (Cancers, 2023)",
  "target": "T1, MCAK (Homo sapiens, UniProt Q99661)",
  "T1 construct": "gene KIF2C",
  "T1 sequence (Q99661 2-725)": "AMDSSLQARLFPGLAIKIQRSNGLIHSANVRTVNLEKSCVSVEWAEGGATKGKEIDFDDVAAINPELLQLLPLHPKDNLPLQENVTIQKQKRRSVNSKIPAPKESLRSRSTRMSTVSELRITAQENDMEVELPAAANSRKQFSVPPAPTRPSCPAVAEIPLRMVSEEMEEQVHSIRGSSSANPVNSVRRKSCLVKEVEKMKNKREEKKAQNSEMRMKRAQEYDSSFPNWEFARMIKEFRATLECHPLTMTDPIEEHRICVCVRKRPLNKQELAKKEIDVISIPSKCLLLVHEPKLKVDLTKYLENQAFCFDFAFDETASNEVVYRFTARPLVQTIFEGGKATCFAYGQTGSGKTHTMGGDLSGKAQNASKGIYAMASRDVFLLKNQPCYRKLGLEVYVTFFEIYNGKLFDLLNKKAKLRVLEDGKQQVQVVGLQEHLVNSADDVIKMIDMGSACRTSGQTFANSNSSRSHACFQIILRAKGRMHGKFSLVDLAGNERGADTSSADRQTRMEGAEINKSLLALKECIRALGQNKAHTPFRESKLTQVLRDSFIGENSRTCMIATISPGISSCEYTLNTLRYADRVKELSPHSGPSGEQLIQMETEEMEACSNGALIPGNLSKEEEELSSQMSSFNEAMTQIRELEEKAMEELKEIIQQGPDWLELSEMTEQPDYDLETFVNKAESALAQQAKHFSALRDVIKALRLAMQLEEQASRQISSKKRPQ",
  "experiment": "sedimentation-based microtubule depolymerization assay with purified FMCAK; FRET conformation screen, FCP counter screen",
  "format": "biochemical",
  "data": [
    {"smiles": "CC(C)c1noc(C2CCCN2C(=O)c2cc(=O)c3ccccc3o2)n1", "note": "(stereo not shown) [H9, 2042 H9]", "values": [
      {"measurement": "sedimentation-based microtubule depolymerization assay with purified FMCAK; FRET", "value": 5, "unit": "µM"}
    ]}
  ]
}
